Legend:
Assay in all cases: 3' UTR reporter interaction score (median-centred robust z-score of log2 firefly/Renilla activity); higher = less repression of the 3' UTR reporter
Details in all cases: HEK293T; 48 h
MYB = test system: MYB
In short: (§1)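 HEK293T cells (10,000/well, 96-well plates) were co-transfected using DharmaFECT Duo with 100 ng firefly luc2P reporter carrying the gene's 3' UTR, 20 ng Renilla pRL-TK control and 2.5 pmol miRNA mimic. Dual-luciferase activities were read 48 h post-transfection. The interaction score is the log-transformed firefly/Renilla ratio as a per-plate robust z-score (median, median absolute deviation), median-centred per miRNA and averaged over at least two independent screens; more negative indicates interaction.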

FBXW7 = test system: FBXW7
In short: as §1

RB1 = test system: RB1
In short: as §1

EZH2 = test system: EZH2
In short: as §1

HRAS = test system: HRAS
In short: as §1

TP53 = test system: TP53
In short: as §1

MYCN = test system: MYCN
In short: as §1

MYT1L = test system: MYT1L
In short: as §1

NOTCH1 = test system: NOTCH1
In short: as §1

PHOX2B = test system: PHOX2B
In short: as §1

ZEB2 = test system: ZEB2
In short: as §1

MYC = test system: MYC
In short: as §1

BRCA2 = test system: BRCA2
In short: as §1

PHF6 = test system: PHF6
In short: as §1

Sequence	3' UTR reporter interaction score (MYB)	3' UTR reporter interaction score (FBXW7)	3' UTR reporter interaction score (RB1)	3' UTR reporter interaction score (EZH2)	3' UTR reporter interaction score (HRAS)	3' UTR reporter interaction score (TP53)	3' UTR reporter interaction score (MYCN)	3' UTR reporter interaction score (MYT1L)	3' UTR reporter interaction score (NOTCH1)	3' UTR reporter interaction score (PHOX2B)	3' UTR reporter interaction score (ZEB2)	3' UTR reporter interaction score (MYC)	3' UTR reporter interaction score (BRCA2)	3' UTR reporter interaction score (PHF6)
UGGUCUAGGAUUGUUGGAGGAG	0.332	-0.0822	-0.907	1.07	1.1	0.772	0.689	-1.45	-3.72	-0.574	-1.89	0.131	0.659	-1.9
GUGUCUUUUGCUCUGCAGUCA	-0.175	-1.58	0.189	1.94	2.01	0.375	0.0597	0.207	-1.08	-2.8	-1.45	1.06	-0.493	-0.433
UGAUUGUCCAAACGCAAUUCU	0.183	-0.0252	0.331	-0.465	0.277	-0.447	0.178	-0.829	0.81	0.249	0.494	-2.91	0.855	1.16
AUGGAGAUAGAUAUAGAAAU	-0.0865	0.0761	-0.936	1.16	0.428	0.174	-0.424	-1.67	-0.424	0.37	1.49	0.503	-0.571	-0.821
UUCACAGUGGCUAAGUUCUGC	1.56	-3.31	0.0429	-0.367	-1.25	-0.662	0.736	0.34	1.04	0.845	0.787	-0.0656	-0.687	0.752
CAUUGCACUUGUCUCGGUCUGA	-0.142	-0.0954	0.825	0.125	-0.416	-0.48	-0.0953	0.397	-0.145	-0.664	-2.69	0.278	0.658	-1.24
UGCUGACUCCUAGUCCAGGGC	0.123	0.322	2.05	0.906	-1.77	0.366	0.0884	0.333	-0.364	-0.537	-1.99	0.54	-3.34	1.06
UAGCACCAUUUGAAAUCGGU	0.262	-2.01	-0.0587	0.53	0.156	-0.108	-3.2	-0.0531	0.946	-0.0846	-0.664	0.499	0.875	-0.281
UAAGGUGCAUCUAGUGCAGUUA	0.34	-0.313	-0.473	0.311	-0.399	0.488	0.0551	-0.221	0.564	0.37	-0.449	0.863	-0.228	-1.71
UGGAGAGAAAGGCAGUUC	0.823	-1.52	-0.051	-0.838	-0.0201	-1.31	0.412	0.463	-0.015	-0.292	1.17	0.053	-0.859	-0.104
CCCAGAUAAUGGCACUCUCAA	0.409	-0.29	-2.36	0.0427	0.111	-0.804	-0.998	0.0372	-0.834	0.745	0.427	0.82	0.00154	-0.296
UGGAAUGUAAAGAAGUAUGUA	0.679	-2.71	0.684	-0.314	1.1	-1.46	-0.505	-0.17	-0.912	0.106	0.551	0.479	0.327	0.925
UCCCUGUCCUCCAGGAGCUCA	0.312	0.105	-0.85	0.643	0.998	0.159	0.194	-0.918	-0.622	-1.29	-0.151	0.568	-0.604	-1.54
CUCCAGAGGGAAGUACUUUCU	1.53	1.4	-2.92	-0.448	-1.03	-0.641	-0.236	1.19	-0.176	0.786	0.514	-0.333	-0.139	1.27
AAUCAUACACGGUUGACCUAUU	0.393	0.544	-0.342	0.236	-0.256	-0.0204	0.277	0.0899	-0.221	-0.199	-1.95	-0.182	-0.246	-0.4
CACCCGUAGAACCGACCUUGCG	0.655	0.377	-0.00577	-0.866	0.575	-0.17	-0.0242	-0.00069	-0.125	-3.87	-1.09	0.596	0.615	-0.967
UCACAGUGAACCGGUCUCUUUU	0.662	-1.07	1.15	0.47	-2.6	0.412	1.36	-2.56	-0.144	-1.31	-4.74	-0.0365	-0.31	1.79

Sequence	3' UTR reporter interaction score (MYB)	3' UTR reporter interaction score (FBXW7)	3' UTR reporter interaction score (RB1)	3' UTR reporter interaction score (EZH2)	3' UTR reporter interaction score (HRAS)	3' UTR reporter interaction score (TP53)	3' UTR reporter interaction score (MYCN)	3' UTR reporter interaction score (MYT1L)	3' UTR reporter interaction score (NOTCH1)	3' UTR reporter interaction score (PHOX2B)	3' UTR reporter interaction score (ZEB2)	3' UTR reporter interaction score (MYC)	3' UTR reporter interaction score (BRCA2)	3' UTR reporter interaction score (PHF6)
UAAAGUAAAUAUGCACCAAAA	-0.21	-0.197	-0.322	0.367	0.372	0.703	-0.59	-0.0291	0.429	1.69	-0.265	0.043	-0.0915	-0.814
CUCUAGAGGGAAGCGCUUUCUGUU	1.71	-0.944	-0.121	-0.269	-0.0223	0.361	-0.278	0.721	1.16	-1.2	0.37	0.337	-0.378	-0.0745
ACUCCAGCCCCACAGCCUCAGC	0.784	-1.03	0.647	-0.117	0.232	-0.602	0.185	-0.581	-0.369	1.37	-0.519	-0.755	-0.443	-1.69
UCUUGGAGUAGGUCAUUGGGUGG	-0.086	-2.32	-0.403	0.166	1.18	0.12	-0.819	-0.548	-0.846	-1.26	1.13	0.457	0.0799	1.13
GUUCAAAUCCAGAUCUAUAAC	-0.548	1.03	-0.538	-0.256	-0.14	0.149	-0.012	-0.972	-0.33	1.14	0.383	-0.205	0.0735	-0.553
UAACACUGUCUGGUAACGAUGU	0.219	0.00413	0.104	-0.274	0.337	-0.247	-0.465	-5.06	0.173	-0.223	-5.66	-0.268	0.575	1.8
UGAGGUAGUAGUUUGUACAGU	0.441	-0.143	0.426	-4.15	1.06	0.627	-3.87	0.517	0.637	0.114	-1.5	-2.59	0.445	-0.221
AAAGCGCUUCCCUUCAGAGUGU	0.692	1.07	-1.21	-0.357	-0.152	0.336	-0.904	-0.332	0.385	1.41	-0.49	-0.758	-0.304	0.134
GAGUGCCUUCUUUUGGAGCGU	-0.982	0.805	0.093	0.0213	-0.294	-0.254	0.414	1.25	-0.567	-3.88	-0.377	-0.339	-0.0488	2.96
AAAGCGCUUCCCUUUGCUGGA	-0.491	0.199	-0.977	0.396	-0.256	-1.12	-0.601	0.0314	0.538	0.212	0.684	-0.245	-0.221	0.797
UAUGGCACUGGUAGAAUUCACUG	0.482	0.255	-0.628	0.196	-0.187	-0.0687	0.735	0.00898	-0.295	0.374	-2.1	0.422	0.00324	-1.31
CUUUCAGUCGGAUGUUUGCAGC	0.557	-0.137	-0.473	-0.356	0.271	-0.309	-0.166	0.0662	0.454	0.68	0.565	0.164	-0.362	-0.502
GAAGGCGCUUCCCUUUGGAGU	-0.216	0.348	0.389	-1.48	-1.8	-0.237	-0.406	0.212	-0.115	2.09	1.47	-1.08	0.864	0.395
CAUCUGGAGGUAAGAAGCACUUU	-2.31	0.143	0.4	0.237	0.165	-1.18	-0.232	-1.9	-0.32	-0.503	1.48	-0.242	0.269	1.19
CUCUAGAGGGAAGCACUUUCUCU	2.18	-2.17	-0.223	-0.139	1.4	-0.432	-0.181	0.381	0.176	-2.05	-0.685	0.549	-0.0386	-0.193
CGCAUCCCCUAGGGCAUUGGUGU	-0.38	-0.0954	-0.799	0.639	1.06	0.263	-0.239	-3.16	-1.34	0.221	-0.392	0.19	0.625	-0.956
UUGGCCACAAUGGGUUAGAAC	0.316	-5.44	0.342	-1.06	-0.0679	-0.693	0.113	1.36	-0.0688	0.306	0.409	0.316	0.035	1.18

Source: the supplement of paper PMC5844555
